In brackets after ≈: the same amount, converted by molar mass.
Assays:
Test in all cases: MIC against standard strains (agar dilution)
Format in all cases: cell-based
[1] = system: Citrobacter freundii 8090; conditions: Citrobacter freundii 8090; Mueller-Hinton agar, 20 hours at 37°C; read-out: MIC
Procedure: (§1) Test example 1: Measurement of Minimum Inhibitory Concentration (MIC)
(§2) Specifically, test compounds were diluted by 2-fold dilution method and dispersed in Mueller-Hinton agar medium and then, 2µℓ of test strains were inoculated at a concentration of 10^7 cfu(colony forming unit)/mℓ on the medium and incubated for 20 hours at 37°C.

Escherichia coli 3190Y = conditions: Escherichia coli 3190Y; Mueller-Hinton agar, 20 hours at 37°C; read-out: MIC
Procedure: as §1, §2

[2] = system: Klebsiella aerogenes K1+ 1082E; conditions: Klebsiella aerogenes K1+ 1082E; Mueller-Hinton agar, 20 hours at 37°C; read-out: MIC
Procedure: as §1, §2

[3] = system: Salmonella typhimurium 14028; conditions: Salmonella enterica; Salmonella typhimurium 14028; Mueller-Hinton agar, 20 hours at 37°C; read-out: MIC
Procedure: as §1, §2

[4] = system: Moraxella catarrhalis C2431; conditions: Moraxella catarrhalis C2431; Mueller-Hinton agar, 20 hours at 37°C; read-out: MIC
Procedure: as §1, §2

[5] = system: Pseudomonas aeruginosa 1912E; conditions: Pseudomonas aeruginosa 1912E; Mueller-Hinton agar, 20 hours at 37°C; read-out: MIC
Procedure: as §1, §2

[6] = system: Serratia marcescens 1826E; conditions: Serratia marcescens 1826E; Mueller-Hinton agar, 20 hours at 37°C; read-out: MIC
Procedure: as §1, §2

S. aureus = conditions: Staphylococcus aureus, Mueller-Hinton agar, 10^7 cfu/mℓ, 20 hours at 37°C
Procedure: as §1, §2

[7] = system: Enterococcus faecalis 29212; conditions: Enterococcus faecalis 29212; Mueller-Hinton agar, 20 hours at 37°C; read-out: MIC
Procedure: as §1, §2

P. vulgaris = conditions: Proteus vulgaris, Mueller-Hinton agar, 10^7 cfu/mℓ, 20 hours at 37°C
Procedure: as §1, §2

[8] = system: Morganella morganii 1375E; conditions: Morganella morganii 1375E; Mueller-Hinton agar, 20 hours at 37°C; read-out: MIC
Procedure: as §1, §2

[9] = system: Pseudomonas aeruginosa 6065Y; conditions: Pseudomonas aeruginosa 6065Y; Mueller-Hinton agar, 20 hours at 37°C; read-out: MIC
Procedure: as §1, §2

[10] = system: Escherichia coli TEM1 1193E; conditions: TEM11193E, 20 h
Procedure: as §1, §2

[11] = system: Staphylococcus epidermidi 887E; conditions: Staphylococcus epidermidi 887E; Mueller-Hinton agar, 20 hours at 37°C; read-out: MIC
Procedure: as §1, §2

Escherichia coli 10536 = conditions: Escherichia coli 10536; Mueller-Hinton agar, 20 hours at 37°C; read-out: MIC
Procedure: as §1, §2

H. influenzae = conditions: Haemophilus influenzae; H. influenzae; Mueller-Hinton agar, 10^7 cfu/mℓ, 20 hours at 37°C; read-out: MIC
Procedure: as §1, §2

[12] = system: Klebsiella pneumoniae 2011E; conditions: Klebsiella pneumoniae 2011E; Mueller-Hinton agar, 20 hours at 37°C; read-out: MIC
Procedure: as §1, §2

[13] = system: Citrobacter diversus 2046E; conditions: Citrobacter koseri; Citrobacter diversus 2046E; Mueller-Hinton agar, 20 hours at 37°C; read-out: MIC
Procedure: as §1, §2

E. coli = conditions: Escherichia coli, Mueller-Hinton agar, 10^7 cfu/mℓ, 20 hours at 37°C
Procedure: as §1, §2

[14] = system: Staphylococcus aureus 241; conditions: Staphylococcus aureus 241; Mueller-Hinton agar, 20 hours at 37°C; read-out: MIC
Procedure: as §1, §2

S. pneumoniae = conditions: Streptococcus pneumoniae, Mueller-Hinton agar, 10^7 cfu/mℓ, 20 hours at 37°C
Procedure: as §1, §2

Escherichia coli 851E = conditions: Escherichia coli 851E; Mueller-Hinton agar, 20 hours at 37°C; read-out: MIC
Procedure: as §1, §2

[15] = system: Staphylococcus aureus 6538p; conditions: Staphylococcus aureus 6538p; Mueller-Hinton agar, 20 hours at 37°C; read-out: MIC
Procedure: as §1, §2

[16] = system: Enterobacter cloacae IND+VE 1194E; conditions: Enterobacter cloacae IND+VE 1194E; Mueller-Hinton agar, 20 hours at 37°C; read-out: MIC
Procedure: as §1, §2

[17] = system: Acinetobacter calcoaceticu 15473; conditions: Acinetobacter calcoaceticu 15473; Mueller-Hinton agar, 20 hours at 37°C; read-out: MIC
Procedure: as §1, §2

[18] = system: Escherichia coli TEM3 3455E; conditions: TEM33455E, 20 h
Procedure: as §1, §2

[19] = system: Escherichia coli TEM9 2639E; conditions: TEM92639E; Escherichia coli TEM9 2639E; Mueller-Hinton agar, 20 hours at 37°C; read-out: MIC
Procedure: as §1, §2

[20] = system: Staphylococcus aureus giorgio; conditions: Staphylococcus aureus giorgio; Mueller-Hinton agar, 20 hours at 37°C; read-out: MIC
Procedure: as §1, §2

[21] = system: Klebsiella aerogenes SHV-1 1976E; conditions: SHV11976E; Klebsiella aerogenes SHV-1 1976E; Mueller-Hinton agar, 20 hours at 37°C; read-out: MIC
Procedure: as §1, §2

Staphylococcus aureus 77 = conditions: Staphylococcus aureus 77; Mueller-Hinton agar, 20 hours at 37°C; read-out: MIC
Procedure: as §1, §2

Enterobacter cloacae P99 = conditions: Enterobacter cloacae P99; Mueller-Hinton agar, 20 hours at 37°C; read-out: MIC
Procedure: as §1, §2

[22] = system: Moraxella catarrhalis 25240; conditions: Moraxella catarrhalis 25240; Mueller-Hinton agar, 20 hours at 37°C; read-out: MIC
Procedure: as §1, §2

Proteus vulgaris 6059 = conditions: Proteus vulgaris 6059; Mueller-Hinton agar, 20 hours at 37°C; read-out: MIC
Procedure: as §1, §2

SMILES: CC(C)(O/N=C(\C(=O)N[C@@H]1C(=O)N2C(C(=O)[O-])=C(C[n+]3ccccc3)CS[C@H]12)c1csc(N)n1)C(=O)O [Ceftazidime, reference compound]
- MIC [1]: 0.13 µg/mL (≈ 0.238 µM)
- MIC (Escherichia coli 3190Y): 0.031 µg/mL (≈ 0.0567 µM)
- MIC [2]: 0.25 µg/mL (≈ 0.457 µM)
- MIC [3]: 0.25 µg/mL (≈ 0.457 µM)
- MIC [4]: 0.031 µg/mL (≈ 0.0567 µM)
- MIC [5]: 1 µg/mL (≈ 1.83 µM)
- MIC [6]: 0.25 µg/mL (≈ 0.457 µM)
- MIC (S. aureus): 4 µg/mL (≈ 7.32 µM)
- MIC [7]: > 128 µg/mL
- MIC (P. vulgaris): 0.031 µg/mL (≈ 0.0567 µM)
- MIC [8]: 0.063 µg/mL (≈ 0.115 µM)
- MIC [9]: 32 µg/mL (≈ 58.5 µM)
- MIC [10]: 0.13 µg/mL (≈ 0.238 µM)
- MIC [11]: > 128 µg/mL
- MIC (Escherichia coli 10536): 0.063 µg/mL (≈ 0.115 µM)
- MIC (H. influenzae): 0.063 µg/mL (≈ 0.115 µM)
- MIC [12]: 0.5 µg/mL (≈ 0.915 µM)
- MIC [13]: 0.25 µg/mL (≈ 0.457 µM)
- MIC (E. coli): 0.031 µg/mL (≈ 0.0567 µM)
- MIC [14]: > 128 µg/mL
- MIC (S. pneumoniae): 8 µg/mL (≈ 14.6 µM)
- MIC (Escherichia coli 851E): 0.063 µg/mL (≈ 0.115 µM)
- MIC [15]: 16 µg/mL (≈ 29.3 µM)
- MIC [16]: 0.5 µg/mL (≈ 0.915 µM)
- MIC [17]: 2 µg/mL (≈ 3.66 µM)
- MIC [18]: 8 µg/mL (≈ 14.6 µM)
- MIC [19]: > 128 µg/mL
- MIC [20]: 4 µg/mL (≈ 7.32 µM)
- MIC [21]: 0.25 µg/mL (≈ 0.457 µM)
- MIC (Staphylococcus aureus 77): 32 µg/mL (≈ 58.5 µM)
- MIC (Enterobacter cloacae P99): 32 µg/mL (≈ 58.5 µM)
- MIC [22]: 0.016 µg/mL (≈ 0.0293 µM)
- MIC (Proteus vulgaris 6059): 0.031 µg/mL (≈ 0.0567 µM)
